The results in this text go back to patent US9403756B2, “N-phenyl anthranilic acid derivatives and uses thereof” (Ramot at Tel-Aviv University Ltd., priority 2007, dated 2016).

Entries after “also recorded” stand apart in the source; their conditions may differ.

In general, EC50 refers to the concentration needed to bring the measured effect to its halfway point.

The target in the first test is T1, KCNQ2 mutant R207W (Homo sapiens, UniProt O43526, R207W).
T1 construct: expressed in transfected cells; host or cells: CHO cells
T1 sequence (O43526 whole entry R207W): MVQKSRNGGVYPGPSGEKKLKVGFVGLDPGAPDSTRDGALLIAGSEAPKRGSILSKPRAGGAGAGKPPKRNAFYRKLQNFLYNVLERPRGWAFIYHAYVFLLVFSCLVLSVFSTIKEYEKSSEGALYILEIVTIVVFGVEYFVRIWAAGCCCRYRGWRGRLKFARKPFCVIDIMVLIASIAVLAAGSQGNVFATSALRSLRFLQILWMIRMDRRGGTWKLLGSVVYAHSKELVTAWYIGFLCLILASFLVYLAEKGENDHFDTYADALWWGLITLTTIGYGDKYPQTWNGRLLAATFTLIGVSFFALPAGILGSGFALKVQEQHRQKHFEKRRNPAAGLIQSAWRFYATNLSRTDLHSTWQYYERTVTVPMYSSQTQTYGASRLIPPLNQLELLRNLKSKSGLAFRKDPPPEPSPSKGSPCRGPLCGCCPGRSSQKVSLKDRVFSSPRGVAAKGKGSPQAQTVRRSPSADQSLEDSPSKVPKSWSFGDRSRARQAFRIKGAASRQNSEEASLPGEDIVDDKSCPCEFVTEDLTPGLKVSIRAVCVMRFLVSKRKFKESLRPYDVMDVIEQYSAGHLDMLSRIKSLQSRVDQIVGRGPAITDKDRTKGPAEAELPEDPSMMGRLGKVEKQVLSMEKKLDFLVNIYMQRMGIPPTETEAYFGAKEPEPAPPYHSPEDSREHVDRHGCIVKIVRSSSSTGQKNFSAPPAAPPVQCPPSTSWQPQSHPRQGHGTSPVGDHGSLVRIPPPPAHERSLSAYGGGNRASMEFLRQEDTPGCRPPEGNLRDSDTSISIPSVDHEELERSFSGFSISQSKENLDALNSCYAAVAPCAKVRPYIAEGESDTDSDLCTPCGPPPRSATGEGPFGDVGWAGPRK
Test: not given
Conditions: not given
In kind it is cell-based. The text has this:
FIGS. 10A-D present the potentiating effect of NH29, an exemplary channel opener compound according to embodiments of the present invention, on wild type KCNQ2 (FIGS. 10A and 10B) and R207W mutant (FIGS. 10C and 10D) channels, as expressed in activation curve measurements, showing that NH29 left-shifts the activation curve (ΔV50) by −15.5 mV and −5.5 mV in the case of the wild-type and the mutant, respectively, and showing that NH29 enhances the current of wild-type and the mutant by about 3.4-fold (at −40 mV) and 1.5-fold (at −20 mV), respectively.
FIGS. 11A-F present the potentiating effect of NH29, an exemplary channel opener compound according to embodiments of the present invention, and Retigabine, on KCNQ2 mutants R207W and W236L mutant. Shown are representative traces recorded from CHO cell transfected with the KCNQ2 mutant R207W 0, 1 and 4-4.5 minutes after external application of 25 μM of NH29 and wherein the membrane potential was stepped from −90 mV holding potential to −20 mV for 1.5 seconds pulse duration (FIG. 11A), or 0, 1 and 4 minutes after external application of 25 μM of Retigabine wherein the membrane potential was stepped from −90 mV holding potential to −40 mV for 1.5 seconds pulse duration (FIG. 11B). FIGS. 11C and 11D show representative traces recorded from CHO cells transfected with the KCNQ2 mutant W236L 0, 1 and 6 minutes after external application of 25 μM of NH29 (FIG. 11C) or 0 and 5 minutes after external application of 10 μM of Retigabine (FIG. 11D) and wherein the membrane potential was stepped from −90 mV holding potential to −40 mV for 1.5 seconds pulse duration. FIG. 11E presents superimposed traces, showing the effects of Retigabine (RTG) and NH29 on the channel activity of KCNQ2 mutant W236L as measured at −40 mV; and FIG. 11F presents a bar diagram comparing the potentiating effect of NH29 and Retigabine on native KCNQ2 and KCNQ2 mutants, wherein the opener effect is expressed as percent of the control current in the absence of the opener.
(§1) Voltage-clamp recordings in CHO cells were performed, using the whole-cell configuration of the patch-clamp technique. Signals were amplified using an Axopatch 200B patch-clamp amplifier (Molecular Devices, Sunnyvale, Calif.), sampled at 2 kHz and filtered at 800 Hz via a 4-pole Bessel low pass filter. Data were acquired using pClamp 9.2 software (Molecular Devices) and an IBM compatible Pentium IV computer in conjunction with a DigiData 1322A interface (Molecular Devices). The patch pipettes were pulled from borosilicate glass (Warner Instrument Corp, USA) with a resistance of 2-5 MΩ. For K^+ current recordings in CHO cells, the intracellular pipette solution contained (in mM): 130 KCl, 1 MgCl2, 5 K2ATP, 5 EGTA, 10 HEPES, adjusted with KOH to pH 7.4 (290 mOsm). The extracellular solution contained (in mM): 140 NaCl, 4 KCl, 1.8 CaCl2, 1.2 MgCl2, 11 glucose, 5.5 HEPES, adjusted with NaOH to pH 7.4 (310 mOsm). Series resistances (3-13 MΩ) were compensated (75-90%) and periodically monitored.
As for Zinc pyrithione [reference compound], the “activation of S4 mutant R207W” value is given as “activate very potently”.

For the next test, the system named is maximal electroshock seizure model (MES) in ICR mice. In words: Maximal electroshock seizure test (MES). In kind it is in vivo. The note with it: 20 mg/kg intraperitoneal, 30 minutes before electroshock; data not shown. The procedure:
The anti-convulsant effect was measured by the maximal electroshock seizure model (MES) in ICR mice as previously described. The procedures followed for experimentation and maintenance of the animals were approved by the animal research ethics committee of Tel Aviv University and in accordance with the Guide for the Care and Use of Laboratory Animals (1996, National Academy of Sciences, Washington D.C.). Briefly, maximal electroshock was induced in adult mice by means of two transcorneal electrodes delivering an alternative current of 50 mA at 60 Hz for 0.2 sec using rodent shocker (Hugo Sachs Electronik, type 221). […] The compounds, dissolved in 0.9% saline, were administered intraperitoneally 30 minutes before the electroshock was performed. Animals failing to show tonic hind limb extension were scored as protected and were expressed in percentage.
For `O=C1NC(=O)C(c2ccccc2)(c2ccccc2)N1` [phenyloin], the “protection in MES” value is “fully prevented hind limb extension”.

The same test, now with this note: 500 mg/kg intraperitoneal, 30 minutes before electroshock; data not shown.
As to `CCCC(CCC)C(=O)[O-].[Na+]` [sodium valproate], the “protection in MES” value was “fully prevented hind limb extension”.

The target of a further test is T2, Kv7.2/3 channels (Homo sapiens, UniProt O43525+O43526).
T2 construct: expressed in transfected cells; host or cells: CHO cells
In words: Kv7.2/3 channels coexpressed in CHO cells, whole-cell patch-clamp. It counts as cell-based. The note with it: M-channel modulation; Kv7.2 and Kv7.3 subunits coexpressed in CHO cells. The procedure:
Chinese hamster ovary (CHO) cells were grown in Dulbecco's modified Eagle's medium (DMEM) supplemented with 2 mM glutamine, 10% fetal calf serum and antibiotics. Briefly, 40,000 cells seeded on poly-D-lysine-coated glass coverslips (13 mm diameter) in a 24-multiwell plate were transfected with pIRES-CD8 (0.5 μg) as a marker for transfection, and with Kv7.2 (0.5 μg) and Kv7.3 (0.5 μg) or TRPV1 […] or TRPV6 […].
For electrophysiology, transfected cells were visualized approximately 40 hours following transfection, using anti-CD8 antibody-coated beads. Transfection was performed using Fugene 6 (Roche, Indianapolis Ind., USA) according to the manufacturer's protocol.
as §1, with “Data were acquired using pClamp 9.2 software (Molecular Devices) and an IBM compatible Pentium IV computer in conjunction with a DigiData 1322A interface (Molecular Devices).” left out, “mOsm).” for “mOsm). Series resistances (3-13 MΩ) were compensated (75-90%) and periodically monitored.”
Data analysis was performed using the Clampfit program (pClamp 9.2, Molecular Devices), Microsoft Excel (Microsoft) and Prism 4.0 (GraphPad). Chord conductance (G) was calculated by using the following equation: G=I/(V−Vrev) where I corresponds to the current amplitude measured at the end of the pulse and Vrev, the calculated reversal potential. G was estimated at various test voltages V and then, normalized to a maximal conductance value, Gmax. Activation curves were fitted by one Boltzmann distribution: G/Gmax=1/{1+exp[(V50−V)/s]} where V50 is the voltage at which the current is half-activated and s is the slope factor. All data were expressed as mean±SEM. Statistically significant differences were assessed by Student's t-test. Analysis of sEPSCs and sIPSCs was done using the Clampfit program (pClamp 9.2, Molecular Devices) and included evaluation of the individual events as well as the average event amplitude and the integral of the event (total charge transfer).
In these studies, the impact of the compounds on M-channel activity was measured by the heterologous coexpression of Kv7.2 and Kv7.3 subunits in CHO cells.
On to `Cc1cccc(Nc2ccccc2C(=O)NCCOCCO)c1C` [NH15], for which the Activity result is “Opener”.
As to `Cc1c(Cl)cccc1Nc1ccccc1C(=O)NCCOCCO` [NH18], the Activity entry is listed as “Opener”.
Same read-out and setting: next, `O=C(O)Cc1ccccc1Nc1c(Cl)cccc1Cl` [Diclofenac, reference compound]: “Opener”; `CC(C)COC(=O)Cc1ccccc1Nc1c(Cl)cccc1Cl` [NH9]: “potent M-channel blockers; also recorded: Blocker”; `CC(C)COC(=O)c1ccccc1Nc1cccc(C(F)(F)F)c1` [NH11]: “totally inactive”.
For the compound `Cc1ccc(Cl)c(Nc2ccccc2C(=O)O)c1Cl` [Meclofenamic, Meclofenamic acid, reference compound], the Activity entry was “Opener”.
Same read-out and setting: the result for `COCCOCCOC(=O)Cc1ccccc1Nc1c(Cl)cccc1Cl` [NH13] reads “totally inactive”; that for `O=C(O)Cc1cc([N+](=O)[O-])ccc1Nc1c(Cl)cccc1Cl` [NH24], “Opener”; that for `CN(CCO)C(=O)Cc1ccccc1Nc1c(Cl)cccc1Cl` [NH5], “Opener”.
Same read-out and setting: the result for `COCCOCCOCCOCCOC(=O)Cc1ccccc1Nc1c(Cl)cccc1Cl` [NH8] reads “totally inactive”.
As for `CC(C(=O)O)c1cccc(Oc2ccccc2)c1` (stereo not drawn) [fenoprofen, reference compound], the Activity entry is “do not activate Kv7.2/3 channels”.
Take `O=C(Cc1ccccc1Nc1c(Cl)cccc1Cl)OCCO` [NH7]: the Activity result is “Opener”.
On the same count and under the same terms, next, `CC(C(=O)O)c1ccc(-c2ccccc2)c(F)c1` (stereo not drawn) [flurbiprofen, reference compound]: “do not activate Kv7.2/3 channels”.
Consider `O=C(Cc1ccccc1Nc1c(Cl)cccc1Cl)OCCOCCO` [NH6], for which the Activity result is listed as “Opener”.
As for `COc1ccc2cc([C@H](C)C(=O)O)ccc2c1` [naproxen, reference compound], the Activity result is recorded as “do not activate Kv7.2/3 channels”.
On the same count and under the same terms, next, `O=C(Cc1ccccc1Nc1c(Cl)cccc1Cl)OCC1CO1` (stereo not drawn) [NH21]: “potent M-channel blockers; also recorded: Blocker”; `O=C(Cc1ccccc1Nc1c(Cl)cccc1Cl)NCCOCCO` [NH14]: “Opener”.
On the same count and under the same terms, next, `O=C(O)c1ccccc1Nc1cccc(C(F)(F)F)c1` [flufenamate, reference compound]: “potent M-channel openers”.
Same read-out and setting: next, `O=C(NCCOCCO)c1ccccc1Nc1cccc(C(F)(F)F)c1` [NH16]: “Opener”.
For `Cc1c(Cl)cccc1Nc1ccccc1C(=O)O` [tolfenamate, reference compound], the Activity entry is reported as “potent M-channel openers”.
The same measure, in the same setting: next, `O=C(Cc1cc([N+](=O)[O-])ccc1Nc1c(Cl)cc([N+](=O)[O-])cc1Cl)NCCO` [NH28]: “Opener”.
As for `Cc1cccc(Nc2ccccc2C(=O)O)c1C` [mefenamate, reference compound], the Activity result is on record as “potent M-channel openers”.
The same measure, in the same setting: next, `Cc1c(Cl)cccc1Nc1ccccc1C(=O)OCC(C)C` [NH10]: “totally inactive”.
As to `O=C(Cc1ccccc1Nc1c(Cl)cccc1Cl)NCCO` [NH27], the Activity result is listed as “Opener”.

Staying with this test, now noted: compounds whose Activity is Blocker; read-out: EC50.
`CC(C)COC(=O)Cc1ccccc1Nc1c(Cl)cccc1Cl` [NH9]: the EC50 was found to be 50 µM.
For `O=C(Cc1ccccc1Nc1c(Cl)cccc1Cl)OCC1CO1` (stereo not drawn) [NH21], the EC50 worked out at 100 µM.

The test is the same for the next values; noted with them: left-shift of the activation curve of Kv7.2/3 channels.
`Cc1cccc(Nc2ccccc2C(=O)NCCOCCO)c1C` [NH15]: the “ΔV50 (mV)” value is recorded as −8.4 mV.
In the case of `Cc1c(Cl)cccc1Nc1ccccc1C(=O)NCCOCCO` [NH18], the “ΔV50 (mV)” value is on record as −3.7 mV.
Turning to `Cc1ccc(Cl)c(Nc2ccccc2C(=O)O)c1Cl` [Meclofenamic, Meclofenamic acid, reference compound], the “ΔV50 (mV)” value is recorded as −22.7 mV.
On the same count and under the same terms, next, `O=C(Cc1ccccc1Nc1c(Cl)cccc1Cl)OCCO` [NH7]: −4.1 mV.
As to `O=C(Cc1ccccc1Nc1c(Cl)cccc1Cl)OCCOCCO` [NH6], the “ΔV50 (mV)” value is −18.7 mV.
Consider `O=C(Cc1ccccc1Nc1c(Cl)cccc1Cl)NCCOCCO` [NH14], for which the “ΔV50 (mV)” value is listed as −12.6 mV.
With `O=C(NCCOCCO)c1ccccc1Nc1cccc(C(F)(F)F)c1` [NH16], the “ΔV50 (mV)” value was −5.5 mV.

Staying with this test, now noted: opener potency; concentration-dependent left-shift in half-activation potential ΔV50, sigmoidal fit; read-out: EC50.
On to `Cc1cccc(Nc2ccccc2C(=O)NCCOCCO)c1C` [NH15], for which the EC50 was found to be 3 µM.
As to `Cc1c(Cl)cccc1Nc1ccccc1C(=O)NCCOCCO` [NH18], the half-maximal effective concentration (EC50) turned out to be 6 µM.
The same measure, in the same setting: next, `O=C(O)Cc1ccccc1Nc1c(Cl)cccc1Cl` [Diclofenac, reference compound]: 2.6 µM.
The same measure, in the same setting: the result for `Cc1ccc(Cl)c(Nc2ccccc2C(=O)O)c1Cl` [Meclofenamic, Meclofenamic acid, reference compound] reads 25 µM; that for `O=C(Cc1ccccc1Nc1c(Cl)cccc1Cl)OCCOCCO` [NH6], 18 µM.
For the compound `O=C(NCCOCCO)c1ccccc1Nc1cccc(C(F)(F)F)c1` [NH16], the EC50 was 9 µM.
